Data on one molecule can be found in ChEMBL document CHEMBL5038618, “Discovery of PT-65 as a highly potent and selective Proteolysis-targeting chimera degrader of GSK3 for treating Alzheimer's disease” (Eur J Med Chem, 2021).

Holding throughout (assay type): functional
What all share (settings): time 74 hrs

The test system of assay [1] is SH-SY5Y. Put plainly: Induction of apoptosis in human SH-SY5Y cells assessed as necrotic cells at 10 uM preincubated for 2 hrs followed by coincubation with Abeta42 and measured after 72 hrs by Annexin V-FITC/propidium iodide staining based flow cytometry (Rvb=0.7%).
In assay [2] the test system is SH-SY5Y. Briefly: Induction of apoptosis in human SH-SY5Y cells assessed as live cells at 10 uM preincubated for 2 hrs followed by coincubation with Abeta42 and measured after 72 hrs by Annexin V-FITC/propidium iodide staining based flow cytometry (Rvb=94.8%).
Assay [3] relates to SH-SY5Y. Put plainly: Induction of apoptosis in human SH-SY5Y cells assessed as early apoptotic cells at 10 uM preincubated for 2 hrs followed by coincubation with Abeta42 and measured after 72 hrs by Annexin V-FITC/propidium iodide staining based flow cytometry (Rvb=1%).
For assay [4], the system named is SH-SY5Y. Briefly: Induction of apoptosis in human SH-SY5Y cells assessed as late apoptotic cells at 10 uM preincubated for 2 hrs followed by coincubation with Abeta42 and measured after 72 hrs by Annexin V-FITC/propidium iodide staining based flow cytometry (Rvb=3.5%).

With `Cn1sc(=O)n(Cc2ccccc2)c1=O`, the Activity in the assay with SH-SY5Y [1] came out at 1.1%; in the assay on SH-SY5Y [2], 92.4%; in the assay on SH-SY5Y [3], 1.3%; with SH-SY5Y [4], 5.3%.
